From PubChem BioAssay AID504726 (Broad Institute, 2011)
The source made the active and inactive calls.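 How the source made its calls: active means fitted half-maximal concentration for a cytotoxic signal drop no higher than ten times the top valid dose tested; inconclusive means flat curve between -70 and -30 percent, or an unreliable fit; inactive means flat within 30 percent, signal rise, or potency beyond limit.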

Experiment: HeLa cell cytotoxicity, dose response, cytotoxicity control, 24 h, cherry-picked samples (AID 504726);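 further: 0% = DMSO neutral controls and -100% = mitoxantrone positive controls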
Settings: HeLa viability, CellTiter-Glo ATP luminescence, 24 h; at 35 µM (top of the series)

## Nc1cccc2c(O)cc(S(=O)(=O)O)cc12
  activity change, negative = cytotoxicity: -1.83% (inactive)

## Cn1c(=O)c(NCCc2ccccc2)c2c3c(cccc31)C(=O)c1ccccc1-2
  activity change, negative = cytotoxicity: -38.4% (inactive)

## O=c1ccc2cc3c4c(c2o1)CCCN4CCC3
  activity change, negative = cytotoxicity: -19.7% (inactive)

## CSc1nc(SC(C)C(=O)O)c2c3c(sc2n1)COC(C)(C)C3 (configuration not stated)
  activity change, negative = cytotoxicity: -9.35% (inactive)

## Cc1cc2nc(SCCN3CCOCC3)[nH]c2cc1C
  activity change, negative = cytotoxicity: -23.1% (inactive)

## Brc1c(CSc2nncc3ccccc23)nc2ccccn12
  activity change, negative = cytotoxicity: -1.12% (inactive)

## Cc1cccc(-c2nsc(SCC(=O)Nc3nccs3)n2)c1
  activity change, negative = cytotoxicity: -0.205% (inactive)

## Cc1ccc(NC(=O)CN2C(=O)N/C(=C/c3cc(C)n(-c4ccc(C(=O)O)cc4)c3C)C2=O)cc1
  activity change, negative = cytotoxicity: -5.94% (inactive)

## CC(=O)N(C(C)=O)N1C(=O)c2cccc3c(N4CCOCC4)ccc(c23)C1=O
  activity change, negative = cytotoxicity: -2.78% (inactive)

## CCCc1nc(NCc2ccccn2)c2nnn(Cc3ccccc3F)c2n1
  activity change, negative = cytotoxicity: -9.25% (inactive)

## Cc1c(NC(=O)CCC2CCCCC2)cc(C(=O)N2CCOCC2)cc1[N+](=O)[O-]
  activity change, negative = cytotoxicity: 0.409% (inactive)

## CN(C)c1ccc(O)c2c1CC1CC3[C@@H](N(C)C)C(=O)C(C(N)=O)=C(O)[C@]3(O)C(=O)C1=C2O (some centres not stated)
  activity change, negative = cytotoxicity: -1.73% (inactive)

## O=C(NCCCN1CCCC1=O)c1ccc2c(c1)ncn2C1CCCCC1
  activity change, negative = cytotoxicity: -5.77% (inactive)

## COc1ccccc1N1CCN(S(=O)(=O)c2c(C)[nH]c(C)c2C(=O)N2CCCC2)CC1
  activity change, negative = cytotoxicity: 3.8% (inactive)

## Cc1ccc(C)c(OCC(=O)N(Cc2nnc(-c3ccccc3Cl)o2)C2CC2)c1
  activity change, negative = cytotoxicity: -0.736% (inactive)

## CCOC(=O)C1(Cc2cccc(F)c2)CCN(Cc2c(C)nn(CC)c2C)CC1
  activity change, negative = cytotoxicity: 0.828% (inactive)

## CCN(CC)C(=O)C1c2ccccc2Oc2ccccc21
  activity change, negative = cytotoxicity: -12.1% (inactive)

## CCCCn1nc(CC(=O)O)c2ccccc2c1=O
  activity change, negative = cytotoxicity: -0.208% (inactive)

## CCc1ccc(N2CC(C(=O)OCC(=O)N(CC)c3c(N)n(Cc4ccccc4)c(=O)[nH]c3=O)CC2=O)cc1 (configuration not stated)
  activity change, negative = cytotoxicity: -9.97% (inactive)

## COc1ccc(-c2cc(C(=O)N(C)CCc3ccc(OC)c(OC)c3)c3ccccc3n2)cc1
  activity change, negative = cytotoxicity: -7.16% (inactive)

## O=C(CC1CCCC1)N1CCN(S(=O)(=O)c2ccccc2)CC1
  activity change, negative = cytotoxicity: -13.4% (inactive)

## Nc1ccc2nc3c(=O)[nH]c(=S)[nH]c3nc2c1
  activity change, negative = cytotoxicity: -3.49% (inactive)

## Nc1ccc2c(O)cc(S(=O)(=O)O)cc2c1
  activity change, negative = cytotoxicity: -11% (inactive)

## O=C(CCn1c(=S)oc2ccccc21)N1CCN(c2ccc(F)cc2)CC1
  activity change, negative = cytotoxicity: 2.32% (inactive)

## CC(C)N(Cc1ccccc1)C(=O)Cn1c(=O)cnc2ccccc21
  activity change, negative = cytotoxicity: 0.817% (inactive)

## Nc1cc(N)nc(SCC(=O)N2CCCCC2)n1
  activity change, negative = cytotoxicity: 4.42% (inactive)

## Cc1nc2c(=O)[nH]c(=S)[nH]c2[nH]c1=O
  activity change, negative = cytotoxicity: 1.86% (inactive)

## C=CCNC(=S)N1CCN(S(=O)(=O)c2ccc(C)cc2)CC1
  activity change, negative = cytotoxicity: -6.85% (inactive)

## N=C1/C(=C\c2ccc(Br)o2)C(=O)N=C2SC(CC(=O)N3CCOCC3)=NN12
  activity change, negative = cytotoxicity: 1.98% (inactive)

## COc1cc(C(=S)N2CCN(c3cccc(Cl)c3)CC2)ccc1O
  activity change, negative = cytotoxicity: 9.69% (inactive)

## COc1cc(SC)ccc1C(=O)OCC(=O)N1CCN(C(C)=O)CC1
  activity change, negative = cytotoxicity: 11.9% (inactive)

## COc1ccc(C(=O)c2ccsc2N)cc1
  activity change, negative = cytotoxicity: 2.38% (inactive)

## Fc1ccc(-c2cc(C(F)(F)F)nc(-n3cc(Cl)cn3)n2)cc1
  activity change, negative = cytotoxicity: -12% (inactive)

## COc1ccc(S(=O)(=O)N2CCC(C(=O)N3CCCCC3)CC2)cc1
  activity change, negative = cytotoxicity: -17.6% (inactive)

## S=c1c2c(nc3nc[nH]n13)CCC2
  activity change, negative = cytotoxicity: -7.9% (inactive)

## CCC(C)[C@H](NC(=O)[C@@H]1Cc2ccccc2CN1)C(=O)Nc1ccc2c(c1)OCO2 (some centres not stated)
  activity change, negative = cytotoxicity: -9.19% (inactive)

## CN(c1ccccc1)S(=O)(=O)c1cccc(NS(=O)(=O)c2cccc(C(=O)O)c2)c1
  activity change, negative = cytotoxicity: 3.74% (inactive)

## O=C(Nc1ccc2c(c1)OCO2)N1CCCc2ccccc21
  activity change, negative = cytotoxicity: -15.9% (inactive)

## O=C(O)COc1ccc2c(c1)O/C(=C\c1ccco1)C2=O
  activity change, negative = cytotoxicity: -1.96% (inactive)

## Cc1c(C#N)c(=O)c(-[n+]2ccccc2)c([S-])n1-c1ccc(Cl)cc1
  activity change, negative = cytotoxicity: -8.57% (inactive)

## S=c1[nH]nc([C@@H]2C[C@H]2c2ccccc2)n1-c1ccccc1Cl
  activity change, negative = cytotoxicity: -6.51% (inactive)

## CC(Cc1ccccc1)NC(=O)NC(C)Cc1ccccc1 (configuration not stated)
  activity change, negative = cytotoxicity: -7.16% (inactive)

## Cc1cccnc1NC1(C(F)(F)F)N=C2SCCN2C1=O (configuration not stated)
  activity change, negative = cytotoxicity: -2.93% (inactive)

## CCCc1cc(C(=O)Nc2ccc(C(=O)c3ccc(C)cc3)cc2)n(C)n1
  activity change, negative = cytotoxicity: 2.14% (inactive)

## Cc1cc(NC(=O)CSc2nnc(COc3cccc(C)c3C)n2C)no1
  activity change, negative = cytotoxicity: 6.24% (inactive)

## CN(C)CCCNC(=O)c1ccccc1Oc1ccccc1
  activity change, negative = cytotoxicity: -6.34% (inactive)

## O=C(Cn1nc(Cc2ccncc2)c2ccccc2c1=O)N1CCN(C(=O)c2ccco2)CC1
  activity change, negative = cytotoxicity: -4.22% (inactive)

## Cc1cc(=O)c2c([nH]1)c(C)cc1[nH]c(C)c(C)c12
  activity change, negative = cytotoxicity: -3.16% (inactive)

## CS(=O)(=O)c1cccc(C(=O)Oc2ccccc2)c1
  activity change, negative = cytotoxicity: 5.26% (inactive)

## Nc1nnc(CC(=O)N/N=C/c2cc([N+](=O)[O-])cc(Br)c2O)s1
  activity change, negative = cytotoxicity: -8.04% (inactive)

## O=C(O)C1Nc2c(O)cc(Cl)c([N+](=O)[O-])c2C2C=CCC12 (configuration not stated)
  activity change, negative = cytotoxicity: -21.5% (inactive)

## CCOc1ccc2noc3c2c1C(=O)c1ccccc1-3
  activity change, negative = cytotoxicity: -3.75% (inactive)

## Fc1ccc(C2=CC(c3ccc(Br)o3)n3ncnc3N2)cc1 (configuration not stated)
  activity change, negative = cytotoxicity: -14.5% (inactive)

## O=C(O)/C=C/c1ccccc1Oc1ccccc1
  activity change, negative = cytotoxicity: -8.62% (inactive)

## O=c1oc2ccccc2nc1/C=C(\O)c1ccc(Br)cc1
  activity change, negative = cytotoxicity: -12.7% (inactive)

## CC(OC(=O)CCN1C(=O)C2CC=CCC2C1=O)C(=O)Nc1ccc(F)cc1 (configuration not stated)
  activity change, negative = cytotoxicity: -6.8% (inactive)

## CCN(CC(=O)NCc1cccs1)C(=O)c1ccc(S(=O)(=O)Nc2ccccc2C)cc1
  activity change, negative = cytotoxicity: 2.2% (inactive)

## O=C(c1ccccc1)c1ccc(O)cc1O
  activity change, negative = cytotoxicity: -20.5% (inactive)

## Cc1cc(/C=C2\C(=O)NC(=O)N(Cc3ccccc3)C2=O)c(C)n1-c1ccc(Cl)c(C(=O)O)c1
  activity change, negative = cytotoxicity: 1.64% (inactive)

## Cc1c(C)n(Cc2ccccc2)c2ncnc(Cl)c12
  activity change, negative = cytotoxicity: -17.6% (inactive)

## COc1cccc2c1NC(C(=O)O)C1CC=CC21 (configuration not stated)
  activity change, negative = cytotoxicity: -12.8% (inactive)

## CCCCn1c(=O)[nH]c2nc3cc(N)ccc3nc2c1=O
  activity change, negative = cytotoxicity: -9.99% (inactive)

## COc1cc(OC)cc(-c2c(-c3ccsc3)c3cc(Br)ccc3n2C)c1
  activity change, negative = cytotoxicity: -23.6% (inactive)

## O=c1nc(N2CCOCC2)ccn1-c1nc(-c2ccccc2)sc1-c1ccccc1
  activity change, negative = cytotoxicity: -8.43% (inactive)

## NNC(=S)Nc1ccc(S(=O)(=O)N2CCOCC2)cc1
  activity change, negative = cytotoxicity: 0.037% (inactive)

## CC1=NCCc2c1[nH]c1cc(O)ccc21
  activity change, negative = cytotoxicity: -12.7% (inactive)

## Cc1cccc(COc2ccc(/C=N/NC(=O)c3nnn(-c4nonc4N)c3COc3ccc(F)cc3)cc2)c1
  activity change, negative = cytotoxicity: -4.08% (inactive)

## C/C(=N/NC(=O)c1ccncc1)c1cc2ccc(O)cc2oc1=O
  activity change, negative = cytotoxicity: 3.38% (inactive)

## CNc1ccc2c3c(cccc13)C(=O)N(C)C2=O
  activity change, negative = cytotoxicity: -12.7% (inactive)

## O=[N+]([O-])c1cccc(CSc2nc3ccccc3[nH]2)c1
  activity change, negative = cytotoxicity: -8.29% (inactive)

## CC(C(=O)O)N1C(=O)/C(=C/C=C/c2ccco2)SC1=S (configuration not stated)
  activity change, negative = cytotoxicity: -13.5% (inactive)

## COC(=O)C1=C(N)OC2=C(C(=O)CCC2)C1c1cccs1 (configuration not stated)
  activity change, negative = cytotoxicity: -5.56% (inactive)

## c1ccc(-c2cn3nc(-c4ccccc4)c(-c4ccccc4)nc3n2)cc1
  activity change, negative = cytotoxicity: -12.6% (inactive)

## Cc1ccccc1N1C(=O)c2cccc3c(N(C)CCO)ccc(c23)C1=O
  activity change, negative = cytotoxicity: -13.3% (inactive)

## CN1C(=O)NC(c2ccccc2[N+](=O)[O-])C2=C1CCCC2=O (configuration not stated)
  activity change, negative = cytotoxicity: -9.55% (inactive)

## Nc1ccc2ccc3cccc[n+]3c2c1
  activity change, negative = cytotoxicity: -15.1% (inactive)

## O=C(Cn1ncc(N2CCCC2)c(Cl)c1=O)c1ccc(Cl)cc1
  activity change, negative = cytotoxicity: 7.35% (inactive)

## NC1=NC[C@@H](Cc2ccc(O)cc2)N1CCc1cc(C(F)(F)F)cc(C(F)(F)F)c1
  activity change, negative = cytotoxicity: -9.29% (inactive)

## Cc1noc(C)c1C(=O)N1CCN(c2ccc(OCc3ccccc3)cc2)CC1
  activity change, negative = cytotoxicity: -3.67% (inactive)

## COc1ccc(Cn2nnc3c(=O)[nH]c(C4CCCN(C(=O)c5ccccc5)C4)nc32)cc1 (configuration not stated)
  activity change, negative = cytotoxicity: -5.25% (inactive)

## CC(C)c1ccc(NC(=O)Cn2c(=O)oc3cccnc32)cc1
  activity change, negative = cytotoxicity: -7.38% (inactive)

## NC(=O)C1=NOC(CNc2ncc(C(F)(F)F)cc2Cl)C1 (configuration not stated)
  activity change, negative = cytotoxicity: -1.63% (inactive)

## NC(=O)c1ccc(NC(=O)C2COc3ccccc3O2)cc1 (configuration not stated)
  activity change, negative = cytotoxicity: -1.55% (inactive)

## O=C(Nc1ccccc1F)c1coc(=O)c(Br)c1
  activity change, negative = cytotoxicity: -20.2% (inactive)

## O=C(O)c1ccc2c(c1)[C@@H]1C=CC[C@@H]1[C@H](c1ccccn1)N2
  activity change, negative = cytotoxicity: -31.8% (inactive)

## O=C(c1ccc2c(c1)CCN2S(=O)(=O)c1ccccc1)N1CCN(c2ccc(F)cc2)CC1
  activity change, negative = cytotoxicity: -13.2% (inactive)

## COc1c2c(nc3occc13)C(CCC(C)(C)O)(OC)C(O)CC2 (configuration not stated)
  activity change, negative = cytotoxicity: -4.6% (inactive)
